We go through 2 compounds from paper PMC10606064, “2-Aminothiazole-Flavonoid Hybrid Derivatives Binding to Tau Protein and Responsible for Antitumor Activity in Glioblastoma” (International Journal of Molecular Sciences, 2023).

The structures appear in SMILES notation.

The target in assay [1] is T1, Tau protein (full-length human Tau, hTau40) (Homo sapiens, UniProt P10636).
T1 construct: The full-length human Tau (hTau40) was expressed in a transformed E. coli BL21 (DE3) strain; made in house; host or cells: E. coli BL21 (DE3)
The experiment in a line: Tau intrinsic fluorescence quenching, modified Stern–Volmer binding parameters. The following applies: 5 µM Tau, buffer B pH 6.8, mean ± SD; for Kd: read-out: Equilibrium Binding Constants to Tau, KD. As to the method:
Fluorescence measurements were performed with a Horiba Jobin Yvon FluoroMax-3 spectrofluorometer. […] For experiments, the excitation wavelength was fixed at 275 nm, and the emission spectra were recorded between 280 nm and 500 nm at room temperature. The inner filter effects were corrected according to Lakowicz as follows:F = Fobs × exp{(Aem + Aex)/2}(2) where Fobs and F are the observed and corrected fluorescence values at the emission wavelength of 303 nm. Aex and Aem are the absorptions at the excitation and emission wavelengths, respectively, calculated with A = ε.l.C, in which ε is the extinction coefficient of Tau, l is the path length of cuvette, and C is Tau concentration.
The total fluorescence in the absence of quencher (F0) is given by:F0 = F0a + F0b(4) where 0 refers to the fluorescence intensity in the absence of quencher.
In the presence of quencher, we defined fa as the fraction of the initial fluorescence of Tau accessible to compounds:fa = F0a/(F0a + F0b)(5)
Therefore, the intensity of the accessible fraction (fa) is decreased according to the Stern–Volmer equation, whereas the buried fraction is not quenched, as given by:F = {F0a/(1 + K.[Q])} + F0b(6)
Then, subtraction of Equations (6) and (4) yields:ΔF = F0 − F = F0a × {K.[Q]/(1 + K.[Q])}(7)
At last, inversion of Equation (7) followed by division into Equation (4) yields:F0/ΔF = {1/(fa.K.[Q])} + 1/fa(8)
We applied this modified form of the Stern–Volmer equation to graphically determine the values of fa and K. For our experiments, we plotted F0/ΔF against 1/[Q], then we determined the fa value at the point of intersection with the y-axis, while the slope represented (faK)^−1.

For assay [2], the target named is T2, mature Tau aggregates (Homo sapiens, UniProt P10636).
T2 construct: The full-length human Tau (hTau40) was expressed in a transformed E. coli BL21 (DE3) strain; made in house; host or cells: E. coli BL21 (DE3)
The assay can be described thus: Dissolution of preformed (mature) Tau aggregates, ThS fluorescence. The format is biochemical. Conditions: 10, 30 and 100 µM added to ThS-labelled aggregates after 8 h, 37 °C. As to the method:
Moreover, we performed a qualitative study of the ability of QCT and compounds 1, 5, and 9 to dissolve preformed Tau aggregates (Figure 3).
Eight-hour time courses were performed with ThS to monitor heparin-induced Tau aggregation by spectrofluorometry at 520 nm (37 °C), then 10, 30, and 100 µM of compounds (curves b–d) were added to the ThS-labelled Tau aggregates. A control was performed without compound (curve a).

The subject of assay [3] is U87 shTau cells. The experiment in a line: Mitotic index by high-content imaging, U87 shTau. The format is cell-based, human. Conditions: 48 h, 5-times IC50 of compounds. As to the method: For scoring mitotic indexes, an automated high-content screening confocal microscopy approach was employed to identify cells undergoing mitosis from a large population of cells. For this, cells nuclei were stained with DAPI. Briefly, fibronectin-coated clear-glass-bottom black 96-well imaging plates were seeded with 100 µL of cell suspension (60,000 cell.mL^−1) in each well, with both U87 shCTRL and U87 ShTau cell lines. Cells were treated with 5-times IC50 of compounds for 48 h, then they were fixated inside the palates with 4% formaldehyde (in PBS pH 7.4) for 20 min at room temperature, permeabilized with PBS-Triton X-100 0.5% for 10 min at room temperature. DNA was then stained with DAPI (10 µg.mL^−1) for 5 min at room temperature and in the darkness. After being washed, cells were kept in PBS at 4 °C and imaged while in PBS. Automated confocal microscopy was carried out using an Opera Phenix (PerkinElmer) high-content screening microscope using a 20× Air/0.4 NA air objective. For each condition, 6 wells were prepared and a total of 61 fields were acquired for each well. Image analysis was performed using Harmony high-content analysis v4.8 software and PhenoLOGIC Machine Learning technology, which uses a learn-by-example approach. As a first step, nuclei were segmented and multiple parameters for these nuclei were calculated using Harmony v4.8 software building blocks. After training, PhenoLOGIC Machine Learning then selects the best parameters to detect nuclei undergoing the M phase of mitosis. From this, the mitotic index of each condition was calculated by dividing the number of cells undergoing mitosis over the total number of cells.

Assay [4] relates to U87 shCTRL and U87 shTau cells. The experiment in a line: Acridine orange spectrofluorometry (late autophagy). Format: cell-based, human. The following applies: both cell types, 5 µM, 48 h. As to the method: Briefly, 2.10^5 cells in exponential growth were seeded in 6-well plates. After 24 h, they were treated with 5 µM of compounds for 48 h. Trypsinized cells were harvested, counted, and then centrifuged (1200 rpm, 5 min, at RT). The cells pellet was resuspended in 2 mL of acridine orange diluted in complete culture media to a final concentration of 1 µg/mL and incubated for 15 min in the dark. Cells were then collected by centrifugation (1200 rpm, 5 min, at RT). The cells pellet was resuspended in PBS to a suspension concentration of 2.10^5 cells/mL. The suspension was transferred to a quartz cuvette, and then fluorescence emission of acridine orange was measured with a FluoroMax-3 spectrofluorometer (Horiba Jobin Yvon, Palaisseau, France) (excitation at 490 nm).

The target in assay [5] is T3, Tau-induced microtubule assembly (tubulin) (Homo sapiens, UniProt P10636).
T3 construct: The full-length human Tau (hTau40) was expressed in a transformed E. coli BL21 (DE3) strain; made in house; host or cells: Tau: E. coli BL21 (DE3); tubulin: purified from lamb brain tissue
The assay can be described thus: Turbidimetry of in vitro Tau-induced microtubule assembly. Format: biochemical, lamb. The following applies: 10 µM tubulin, 5 µM Tau, 2.5–50 µM compound, 37 °C. As to the method: The polymerization of tubulin was monitored by measuring the apparent absorbance at 350 nm using a Beckman DU 7400 spectrophotometer at 37 °C. Tubulin at a final concentration of 10 µM was mixed with compounds at the indicated concentration and immediately placed into the spectrometer chamber. When the signal was stable, Tau at a final concentration of 5 µM was added to induce microtubule formation. Measurements were continued until turbidity values reached a plateau.

T1 sequence (P10636 1-441 isoform P10636-8): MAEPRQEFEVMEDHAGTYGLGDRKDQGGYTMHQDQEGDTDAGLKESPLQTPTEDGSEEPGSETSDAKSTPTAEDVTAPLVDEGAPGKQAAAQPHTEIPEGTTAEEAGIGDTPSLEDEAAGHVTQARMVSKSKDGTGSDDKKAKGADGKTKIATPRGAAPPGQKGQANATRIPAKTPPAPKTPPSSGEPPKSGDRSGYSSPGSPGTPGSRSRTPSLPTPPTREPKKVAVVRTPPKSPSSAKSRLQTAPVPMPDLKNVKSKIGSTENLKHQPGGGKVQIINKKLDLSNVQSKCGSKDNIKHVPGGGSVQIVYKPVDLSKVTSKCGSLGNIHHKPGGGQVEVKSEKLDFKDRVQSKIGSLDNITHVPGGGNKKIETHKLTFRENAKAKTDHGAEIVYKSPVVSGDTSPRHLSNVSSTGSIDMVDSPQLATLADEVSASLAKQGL
T3 sequence (P10636 2-441 isoform P10636-8): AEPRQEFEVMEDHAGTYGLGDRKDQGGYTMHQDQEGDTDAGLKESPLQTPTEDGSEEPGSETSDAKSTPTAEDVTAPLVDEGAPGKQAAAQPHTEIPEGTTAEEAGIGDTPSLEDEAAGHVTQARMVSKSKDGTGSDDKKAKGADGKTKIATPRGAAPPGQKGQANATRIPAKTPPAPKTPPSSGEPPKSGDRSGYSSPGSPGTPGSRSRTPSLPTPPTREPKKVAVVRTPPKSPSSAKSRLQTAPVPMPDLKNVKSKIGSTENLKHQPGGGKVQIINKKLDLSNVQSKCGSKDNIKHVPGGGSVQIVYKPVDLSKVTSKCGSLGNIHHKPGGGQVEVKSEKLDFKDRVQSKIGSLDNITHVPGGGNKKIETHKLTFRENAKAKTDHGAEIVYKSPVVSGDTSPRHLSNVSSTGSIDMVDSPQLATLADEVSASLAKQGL
T2 sequence (P10636 1-441 isoform P10636-8): as the sequence (P10636 1-441 isoform P10636-8) above

In the case of `Nc1nc2ccc3oc(-c4cccc(Oc5ccccc5)c4)cc(=O)c3c2s1` [Compound 2, 2-amino-7-(3-phenoxyphenyl)-9H-chromeno [6,5-d]thiazol-9-one], in assay [1], the “Equilibrium Binding Constants to Tau, fA (Tyr accessible fraction)” value worked out at 0.14 ± 0.10 and the Kd amounted to 4.7 ± 1.8 µM. Moreover, the “Ability to dissolve mature (preformed) Tau aggregates” value in assay [2] is given as “able to dissolve mature Tau aggregates”. Further, the mitotic index result in assay [3] is given as “no significant variation of mitotic indexes”. For the same compound, the “acridine orange fluorescence emission” value in assay [4] is on record as “shift to blue emission”. The “effect on turbidity time course of Tau-induced microtubule assembly” value in assay [5] is “no effect on the turbidity time course”.

For the compound `Nc1nc2ccc3oc(C(=O)O)cc(=O)c3c2s1` [Compound 5], in assay [1], the “Equilibrium Binding Constants to Tau, fA (Tyr accessible fraction)” value worked out at 0.38 ± 0.01 and the Kd is 6.4 ± 1.5 µM. Further, in assay [2], the “Ability to dissolve mature (preformed) Tau aggregates” value is listed as “no significant change of ThS fluorescence intensity”. In assay [3], this compound yielded a mitotic index of 3 ± 0.39%. Also, the “acridine orange fluorescence emission” value in assay [4] is reported as “shift to blue emission”. In addition, the “effect on turbidity time course of Tau-induced microtubule assembly” value in assay [5] is “no effect on the turbidity time course”.
